Laboratory results: patent publication US20090215710A1, “CARBOHYDRATE BASED TOLL-LIKE RECEPTOR (TLR) ANTAGONISTS” (RELIANCE LIFE SCIENCES PVT. LTD., priority 2007, published 2009)

What was measured:
TLR2 = target: T1, TLR2 (Homo sapiens, UniProt O60603); assay: TLR2 ligand induced TNF-α secretion in THP-1 cells and PBMCs (ELISA); format: cell-based; conditions: TLR2 ligand 75 ng/ml, 1 hr pre-treatment, 24 hrs
T1 construct: endogenous in cells; host or cells: THP-1 monocytes and PBMCs
Protocol: (§1) The present invention has checked the effect of various TLR ligands on THP-1 monocytes, PBMCs and their ability to activate and release TNF-α. For this purpose about 9 TLR ligands were used. These ligands were obtained from Apotech Cat; APO-54N-018-K100 and assayed for TNF-α release in culture supernatants.
(§2) THP-1 and PBMCs (2×10^5 cells/well) were plated in 96-well plate. The cells were pretreated with RSCL-0409 in DMSO 1 hr prior to TLR ligand treatment. Following 1 hr pre-treatment, the cells were treated with TLR ligands [TLR2, TLR5 and TLR6-75 ng/ml each, TLR3-75 μg/ml, TLR4-750 ng/ml, TLR7, TLR8 and TLR9-7.5 μg/ml) for 24 hrs. The culture supernatant were collected after the stipulated time and assayed for TNF-α release using a Duoset Enzyme-Linked ImmunoSorbent Assay (ELISA) detection Kit (R&D systems, MN 55413, USA; Cat: DY-210 E). Simultaneously supernatants were collected from cells treated with ligands without pre-treatment with RSCL-0409 and only RSCL-0409 without ligand treatment.

TLR4 = target: T2, TLR4 (Homo sapiens, UniProt O00206); assay: TLR4 ligand induced TNF-α secretion in THP-1 cells and PBMCs (ELISA); format: cell-based; conditions: TLR4 ligand 750 ng/ml, 1 hr pre-treatment, 24 hrs
T2 construct: endogenous in cells; host or cells: THP-1 monocytes and PBMCs
Protocol: as §1, §2

TNF-α mRNA = TNF-α mRNA expression in LPS stimulated THP-1 cells (real-time PCR); format: cell-based, human; conditions: THP-1, LPS 250 ng/ml 1 hr
Protocol: To determine whether the suppressive effect of RSCL-0409 on the cytokine production occurs at mRNA expression level, quantitative real-time PCR was used to examine TNF-α and IL-6 mRNA expression in THP-1 cells stimulated with LPS. THP-1 cells (3×10^6 cells/well) were stimulated with 250 ng/ml LPS in the presence or absence of RSCL-0409 at indicated concentrations for the 1 hr. Total RNA was isolated from these cells and cDNA was synthesized. LPS treated cells acted as positive control. All quantitative real-time PCR (TaqMan™) primers and probes were obtained from Applied Biosystems (ABI), Weiterstadt, Germany. For detection of TNF-α, pre-developed assay reagents (Universal master mix as obtained from Applied Biosystems included all reagents including Taq-polymerase apart from specific primers and probes) were used. The PCR was performed utilizing 1 μl cDNA per reaction in triplicates of 25 μl volume on an ABI 7500 Realtime PCR machine using a 2-step PCR protocol.
Quantization of mRNA was performed using the comparative threshold cycle method and analysed using standard software and expressed in fold change. The fold change of TNF-α (FIG. 5a) and IL-6 (FIG. 5b) mRNA in treated cells over control was obtained after correction for the amount of β-actin. […] The expression levels of both TNF and IL-6 decreased following 1 hr pretreatment with RSCL-0409 in the presence of LPS. […]

COX-2 pathway = assay: Arachadonic acid induced PGE2 release in A549 cells (EIA); format: cell-based, human
Excerpt: COX-2 is the key enzyme regulating the production of prostaglandins, which act as central mediators of inflammation. […] It is well documented COX-2 pathway inhibitors were regarded as promising nonsteroidal anti-inflammatory drugs (NSAIDs). So we decided to test the ability of RSCL-0409 to block the COX-2 pathway to substantiate our earlier mRNA observation. For that purpose, we chose A549 cells, a human lung cancer cell line where COX-2 is activated by AA in serum-free stimulation established by Yao et al for 12 hr. (Yao J C, Duan W G, Yun Y, Liu de Q, Yan M, Jiang Z Z, Zhang L Y. Screening method for nonsteroidal antiinflammatory drugs based on the cyclooxygenase 2 pathway activated by serum-free stimulation in A549 cells. Yakugaku Zasshi. 2007; 127: 527-32.) In order to determine the efficiency of our molecule, we have incorporated two known COX-2 NSAIDs-Piroxicam and Ibuprofen for comparison purposes. A549 cells (50×10^4 cells/well) in serum free medium were pretreated with different concentrations (10 μM, 5 μM, 2.5 μM, and 1.25 μM) of the NSAIDs and RSCL-0409 for 30 min. Then the cells were incubated with AA ([…]) for another 30 min. Prostaglandin E2 (PGE2), a metabolite of AA through the Cox pathway, was assayed in an enzyme immunoassay (EIA) kit from R&D systems.

NF-κB = NF-κB activation and nuclear translocation in LPS stimulated THP-1 cells (FACS phospho p65, immunoblot); format: cell-based, human
Protocol: Further, for the detection of intracellular location of phospho NF-κB p65 subunits, 1 hr LPS-stimulated cells with and without pretreatment of RSCL-0409 (50 μM—FIG. 7b) were fixed with 4% paraformaldehyde in PBS for 30 min and washed with Fluorescence-activated cell sorting (FACS) buffer [2% Fetal calm serum (FCS) in 1× Phosphate buffered saline (PBS)]. Permeabilisation is done using 90% methanol. These cells were then treated with phospho p65 monoclonal antibody tagged with Alexa Fluor 488 (Cell Signaling Technology, Inc, Ma, USA) for 1 hr at 37° C., followed by washing FACS buffer. Cells were then resuspended in PBS and acquired in BD FACS Calibur.
The nuclear fractions were obtained from LPS stimulated THP-1 cells at the indicated times (FIG. 7c). Nuclear proteins electrophoresed were processed for immunoblots using a NF-κB specific antibody.

TIRAP and MyD88 = assay: Protein levels of TIRAP and MyD88 in LPS stimulated THP-1 cells (immunoblot); format: cell-based, human; conditions: THP-1, LPS 250 ng/ml, 1 hr pre-treatment
Protocol: Further confirmation was obtained at the protein level. Serum-starved THP-1 cells were stimulated with LPS (250 ng/ml) for the indicated time in the presence and absence of RSCL-0409. RSCL-0409 treatment was 1 hr prior to LPS treatment. Immunoblotting of total protein was carried out as before to determine protein levels of TIRAP and MyD88.

T1 sequence (O60603 21-784): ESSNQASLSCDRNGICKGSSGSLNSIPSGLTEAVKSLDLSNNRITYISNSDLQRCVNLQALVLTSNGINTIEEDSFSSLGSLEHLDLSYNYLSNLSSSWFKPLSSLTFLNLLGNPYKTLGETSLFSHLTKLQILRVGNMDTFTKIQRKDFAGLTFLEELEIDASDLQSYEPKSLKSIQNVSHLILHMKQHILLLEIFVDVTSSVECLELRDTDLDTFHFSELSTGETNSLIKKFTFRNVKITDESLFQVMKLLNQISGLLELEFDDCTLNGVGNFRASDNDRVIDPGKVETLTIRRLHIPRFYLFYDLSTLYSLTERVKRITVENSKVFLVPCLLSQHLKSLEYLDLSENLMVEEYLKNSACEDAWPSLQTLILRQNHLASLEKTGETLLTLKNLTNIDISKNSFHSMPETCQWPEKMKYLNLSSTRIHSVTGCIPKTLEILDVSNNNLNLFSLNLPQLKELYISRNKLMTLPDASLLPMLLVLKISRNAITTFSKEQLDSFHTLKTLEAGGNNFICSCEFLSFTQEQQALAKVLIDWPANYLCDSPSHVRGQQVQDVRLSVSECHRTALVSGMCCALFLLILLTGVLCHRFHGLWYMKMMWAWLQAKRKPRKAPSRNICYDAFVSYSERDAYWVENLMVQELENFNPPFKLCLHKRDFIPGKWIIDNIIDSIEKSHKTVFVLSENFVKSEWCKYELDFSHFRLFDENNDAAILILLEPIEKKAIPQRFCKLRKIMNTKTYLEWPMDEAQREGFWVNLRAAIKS
T2 sequence (O00206 24-839): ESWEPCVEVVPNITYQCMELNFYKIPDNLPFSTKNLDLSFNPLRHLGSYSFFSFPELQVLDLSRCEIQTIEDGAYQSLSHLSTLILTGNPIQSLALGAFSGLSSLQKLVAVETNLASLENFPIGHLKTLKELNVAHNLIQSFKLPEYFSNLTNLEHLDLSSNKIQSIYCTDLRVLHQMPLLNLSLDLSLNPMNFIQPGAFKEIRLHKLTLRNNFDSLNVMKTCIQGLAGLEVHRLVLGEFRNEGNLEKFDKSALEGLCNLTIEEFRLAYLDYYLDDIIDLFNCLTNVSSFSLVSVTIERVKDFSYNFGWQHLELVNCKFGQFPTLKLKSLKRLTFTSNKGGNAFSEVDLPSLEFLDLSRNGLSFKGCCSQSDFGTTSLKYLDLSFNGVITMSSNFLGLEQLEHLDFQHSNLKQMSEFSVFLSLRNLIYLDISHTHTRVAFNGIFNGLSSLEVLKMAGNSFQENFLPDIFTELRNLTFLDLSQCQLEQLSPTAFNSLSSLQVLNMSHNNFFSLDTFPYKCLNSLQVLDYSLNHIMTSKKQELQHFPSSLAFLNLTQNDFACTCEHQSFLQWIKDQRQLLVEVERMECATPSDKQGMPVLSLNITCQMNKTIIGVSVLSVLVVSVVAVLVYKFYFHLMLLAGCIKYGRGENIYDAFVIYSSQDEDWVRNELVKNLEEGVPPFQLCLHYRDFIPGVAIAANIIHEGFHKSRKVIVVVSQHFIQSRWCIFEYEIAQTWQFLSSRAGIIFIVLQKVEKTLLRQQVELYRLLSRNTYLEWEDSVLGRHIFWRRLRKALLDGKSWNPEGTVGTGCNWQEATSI
T2 sequence (Q9Y6Y9 17-160 partner limits assumed): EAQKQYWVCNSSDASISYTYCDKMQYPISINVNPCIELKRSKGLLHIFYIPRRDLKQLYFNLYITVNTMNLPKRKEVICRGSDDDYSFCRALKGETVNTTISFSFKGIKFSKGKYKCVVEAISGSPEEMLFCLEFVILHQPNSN

SMILES: COc1ccc(OC2OC3COC(c4ccccc4)OC3C(OC3OC(COC(=O)CCC(C)=O)C(OC(=O)CCl)C(OC(C)=O)C3OC(C)=O)C2NC(=O)C(Cl)(Cl)Cl)cc1 [RSCL-0409, p-Methoxy phenyl-O-(2,3-di-O-acetyl-4-O-chloroacetyl-6-O-levulinoyl-β-D-glucopyranosyl)-(1-3)-2-deoxy-2-trichloroacetamido-4,6-O-benzylidene-α-D-glucopyranoside]
- inhibition of TNF-α secretion (TLR2; PBMC): ~46%
- inhibition of TNF-α secretion (TLR2; THP-1 cells): ~54%
- inhibition of TNF-α secretion (TLR4; PBMCs): ~34%
- inhibition of TNF-α secretion (TLR4; THP-1 cells): ~100%
- TNF-α mRNA expression (TNF-α mRNA): down regulated TNF-α to almost control levels
- PGE2 release (COX-2 pathway; A549 cells, 10, 5, 2.5 and 1.25 μM, AA induced): concentration dependent inhibition of PGE2 release
- concentration still effective on PGE2 release (COX-2 pathway; A549 cells, AA induced): 1.25 µM
- inhibition of PGE2 in comparison with the NSAIDs (COX-2 pathway; at all the concentrations used): better than Piroxicam
- phospho NF-κB p65 (FACS) (NF-κB; THP-1, 1 hr LPS, 50 μM): inhibitory role in NF-κB signaling
- translocation of NF-κB to the nucleus (NF-κB; nuclear fractions of LPS stimulated THP-1 cells): blocked translocation of NF-κB into the nucleus
- protein levels of TIRAP and MyD88 (TIRAP and MyD88): Down regulation of TIRAP and also MyD88 at protein levels
